Experimental data reported in patent US4556677A, “Alkane and alkene derivatives and their use” (Farmos Group Ltd., priority 1981, dated 1985).
Structures can show the parent of a compound that is named as a salt. Where two headings read alike, the source gives them in different places.

What was measured:
[1] = tested on: mouse uterus; test: progestanic effect in vivo, reduction of mouse uterus weight; conditions: for Given alone: progestanic effect (in words) / Given alone: reduction in mice uterus weight: Table 2, 0.5 mg/kg
Protocol: (§1) The estrogen-antiestrogen (progesterone-antiprogesterone) effect in vivo was determined as follows:
(§2) The (anti)progestanic effects were studied in a similar manners as the estrogenic ones. Medroxyprogesterone acetate, which decreases uterus weight, was used as reference.
(§3) The progestanic and antiprogestanic effects of compounds were measured as described earlier. The compound No. 2 reduced the weight of mouse uterus by 49% compared to control while medroxyprogesterone acetate gave 40% reduction.
(§4) In Table 2 a summary of the oestrogenic/antioestrogenic and progestanic/antiprogestanic effect of some of the compounds can be seen. The percentages refer to increase/reduction in mice uterus weights.

[2] = biological target: T1, estrogen receptors (Rattus norvegicus, UniProt P06211); test: affinity to estrogen receptors, competition with 3H-labelled 17-β-estradiol (dextran-charcoal method); format: binding; conditions: rat uterus cytosol, Table 1; read-out: Affinity (concentration of compound where 50% competition (inhibition) with 3H-estradiol occurred)
T1 construct: rat uterus cytosol preparation; from tissue; host or cells: rat uterus cytosol
T1 sequence (P06211 1-600): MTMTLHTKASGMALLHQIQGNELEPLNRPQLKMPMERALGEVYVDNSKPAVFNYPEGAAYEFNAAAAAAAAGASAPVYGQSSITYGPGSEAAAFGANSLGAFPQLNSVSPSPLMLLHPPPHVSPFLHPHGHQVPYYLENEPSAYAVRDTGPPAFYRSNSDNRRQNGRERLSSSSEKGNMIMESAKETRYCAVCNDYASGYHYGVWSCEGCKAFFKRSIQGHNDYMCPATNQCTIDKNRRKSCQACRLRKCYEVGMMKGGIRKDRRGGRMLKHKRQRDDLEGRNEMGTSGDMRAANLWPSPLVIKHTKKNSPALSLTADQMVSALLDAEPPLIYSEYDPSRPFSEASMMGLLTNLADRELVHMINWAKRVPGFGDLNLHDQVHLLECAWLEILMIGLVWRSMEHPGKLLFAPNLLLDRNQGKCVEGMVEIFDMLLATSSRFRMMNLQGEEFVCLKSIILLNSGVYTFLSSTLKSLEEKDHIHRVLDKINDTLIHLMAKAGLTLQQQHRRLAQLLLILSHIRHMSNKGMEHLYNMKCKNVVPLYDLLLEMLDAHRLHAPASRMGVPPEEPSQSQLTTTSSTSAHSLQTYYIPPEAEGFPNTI
Protocol: The affinity to estrogen receptors was determined by the ability of the molecules to compete with ^3 H-labelled 17-β-estradiol in rat uterus cytosol preparation. After incubation, receptor-bound and receptor-unbound ligands were separated by a known dextrancharcoal method. (Korenman, S. G.: "Comparative binding affinity of estrogens and its relation to estrogenic potency". Steroids 13: 163-177, 1969). […] The results in table 1 are shown as follows: | with ^3 H--estradiol occurred

[3] = tested on: mouse uterus; test: antiprogestanic/synergistic effect in vivo, given together with medroxyprogesterone acetate, mouse uterus weight; conditions: for Given with medroxyprogesterone acetate: effect (in words) / Given with medroxyprogesterone acetate: reduction in mice uterus weight: Table 2, 0.5 mg/kg, with medroxyprogesterone acetate 0.06 mg/kg
Protocol: as §1, §2, §3, §4

[4] = tested on: DMBA-induced rat mammary adenocarcinomas; test: antitumour effect in vivo against DMBA-induced rat mammary adenocarcinomas
Protocol: (§5) The anti-tumour effect was investigated in vivo against DMBA-induced rat mammary adenocarcinomas and transplantable mammary adenocarcinoma according to the following methods:
Mammary adenocarcinomas were induced by DMBA in 35-40 days old female rats. Treatment with the molecules to be investigated was started after palpable tumours had appeared. Tumour size and numbers of tumours were evaluated twice a week. Tumour sizes in the control group, treated with solvent, were compared with the test groups.
The antitumour effect in vivo against DMBA-induced mammary carcinomas was investigated as described earlier. […] Compound 2 at the dose of 7.5 mg/kg caused a 63% decrease in the size of tumours compared to the control.

[5] = tested on: immature mouse uterus; test: antiestrogenic effect in vivo, inhibition of oestradiol induced uterus weight increase in immature mice; conditions: for antiestrogenic effect (in words): immature mice
Protocol: as §1
The antiestrogenic effects of the molecules were determined in a similar manner in immature mice. In this case, the ability of the molecules to inhibit estrogen-induced uterus weight increase was investigated, too.
The compound 1 at a dose of 0.5 mg/kg caused a 50% inhibition of oestradiol induced effect on mouse uterus.
as §4

[6] = tested on: immature mouse uterus; test: estrogenic effect in vivo, immature mouse uterus weight; conditions: for oestrogenic effect, % less than that of oestradiol 0.05 mg/kg: s.c., immature mice; for Given alone: oestrogenic effect (in words): Table 2, 0.5 mg/kg; for estrogenic effect (in words): immature mouse uterus weight
Protocol: as §1
The estrogenic properties of the molecules were determined by administering the molecules, suspended in sesam oil, subcutaneously to 21 days old immature mice on three consecutive days. The mice were killed on the fourth day and the uterus was weighed. Estradiol (positive control) increases the weight of the uterus. The weight correlates with the estrogenic effect of the molecules.
The estrogenic effect of compounds of the invention as measured by their ability to increase the weight of immature mouse uterus was usually far less than that of oestradiol, the positive control. […] At the dose of 0.5 mg/kg the oestrogenic effect of compound 1, 7 and 8 were respectively 20%, 75% and 83% less and at the dose of 5 mg/kg the oestrogenic effect of compound 2 was 60% less than that of oestradiol 0.05 mg/kg.
as §4

[7] = tested on: transplantable rat mammary adenocarcinoma; test: effect on transplantable rat mammary adenocarcinoma; format: in vivo
Source text: as §5
Transplantable rat mammary adenocarcinoma was developed by inoculating pieces of DMBA-induced carcinomas subcutaneously to healthy mature female rats. A tumor which expressed malignant growth was selected for further transplantations.
The effects of compounds mentioned earlier against transplantable rat mammary adenocarcinoma can be seen in table 4.
The figures in table 4 refer to relative sizes compared to controls which is 100.

[8] = tested on: MCF-7 human mammary adenocarcinoma cell line; test: anti-tumour effect in vitro, growth of MCF-7 cells (bioluminescence ATP assay); format: cell-based; conditions: MCF-7, Table 3, read-out: Antitumour effect (IC50 = concentration of compound where 50% inhibition of cell growth could be seen)
Protocol: The anti-tumour effect was studied in vitro as follows:
The growth of MCF-7 cell line (human mammary adenocarcinoma, known to be estrogen-dependent) was evaluated in the presence or absence of estradiol, medroxyprogesterone acetate or the molecules to be investigated. Combinations of molecule plus estradiol and molecule plus medroxyprogesterone were also studied. The amount of living cells after 4 h, 24 h and 48 h incubations were determined by bioluminescence assay (intracellular ATP determination).
The antitumour effects of the compounds had been tested in vitro against MCF-7 human mammary adenocarcinoma cell line and in vivo against DMBA-induced rat mammary adenocarcinomas and transplantable mammary adenocarcinoma.
In table 3 the antitumour effects of certain compounds can be seen.

[9] = together with medroxyprogesterone acetate
[10] = Table 2, 0.5 mg/kg, with oestradiol 0.05 mg/kg

Structure (SMILES): CC(=O)O[C@]1(C(C)=O)CC[C@H]2[C@@H]3C[C@H](C)C4=CC(=O)CC[C@]4(C)[C@H]3CC[C@@]21C [medroxyprogesterone acetate, Medroxyprogesterone acetate, reference compound]
- decrease of mouse uterus weight by medroxyprogesterone acetate alone ([1]; reference compared with compound 8): 20%
- reduction of mouse uterus weight by medroxyprogesterone acetate alone ([1]; reference compared with compounds 2 and 11): 40%

Structure (SMILES): CCC(CO)C(CC)c1ccc(O)cc1 (stereo not shown) [Compound 12, 2-ethyl-3-(p-hydroxyphenyl)-1-pentanol]
- IC50 [2]: 10 to 100 µM

Structure (SMILES): CC/C(=C(\c1ccccc1)c1ccc(OCCN(C)C)cc1)C1CCCC1 [Compound 2, (Z)--2-cyclopentyl-1-(p-(N,N--dimethyl-2-amino-ethoxy)phenyl)-1-phenyl-1-butene, hydrochloride]
- Given with medroxyprogesterone acetate: effect (in words) [3]: synergistic
- Given with medroxyprogesterone acetate: reduction in mice uterus weight [3]: 61%
- antiprogestanic / synergistic effect with medroxyprogesterone acetate (in words) [3, 9]: no antiprogestanic effects but a synergistic effect could be seen
- IC50 [2]: 0.1 to 10 µM
- decrease in size of tumours compared to the control ([4]; 7.5 mg/kg): 63%
- inhibition of oestradiol induced effect on mouse uterus ([5]; 5 mg/kg): 50%
- Given with oestradiol: effect (in words) [5, 10]: antioestrogenic
- Given with oestradiol: reduction in mice uterus weight [5, 10]: 36%
- oestrogenic effect, % less than that of oestradiol 0.05 mg/kg ([6]; 5 mg/kg): 60%
- Given alone: oestrogenic effect (in words) [6]: oestrogenic
- estrogenic effect (in words) [6]: dose dependent
- relative tumour size compared to controls which is 100 ([7]; 1.0 mg/kg): 82
- relative tumour size compared to controls which is 100 ([7]; 5.0 mg/kg): 87
- relative tumour size compared to controls which is 100 ([7]; 10.0 mg/kg): 69
- Given alone: progestanic effect (in words) ([1]; given alone): progestanic
- Given alone: reduction in mice uterus weight ([1]; given alone): 49%
- reduction of mouse uterus weight compared to control ([1]; given alone, dose not given): 49%
- IC50 ([8]; Homo sapiens, MCF7): 5 to 10 µM

Structure (SMILES): CCC(C1CCCC1)C(c1ccccc1)c1ccc(O)cc1 (stereo not shown) [Compound 5, 2-cyclopentyl-1-(p-hydroxyphenyl)-1-phenylbutane]
- antiprogestanic / synergistic effect with medroxyprogesterone acetate (in words) [3, 9]: slight inhibition of medroxyprogesterone acetate produced effect
- antiestrogenic effect (in words) [5]: not antiestrogenic
- estrogenic effect (in words) [6]: did not possess any estrogenic effects of their own
- progestanic effect (in words) ([1]; given alone): did not possess progestanic effects
- IC50 [8]: 1 to 5 µM

Structure (SMILES): CCC(c1ccc(O)cc1)C(CC)C1CCCC1 (stereo not shown) [Compound 9, 3-cyclopentyl-4-(p-hydroxyphenyl)-hexane]
- IC50 [2]: 0.1 to 1 µM
- IC50 ([8]; Homo sapiens, MCF7): 1 to 10 µM

Structure (SMILES): CC/C(=C(/c1ccccc1)c1ccc(O)cc1)C1CCCC1 [Compound 1, (E)--2-cyclopentyl-1-(p-hydroxyphenyl)-1-phenyl-1-butene]
- IC50 [2]: 0.1 to 1 µM
- decrease in size of tumours compared to the control ([4]; 10 mg/kg): 75%
- growth of the tumours (in words) ([4]; 10 mg/kg): the growth of the tumours was slowed
- number of the tumours (in words) ([4]; 10 mg/kg): the number of the tumours was decreasing
- inhibition of oestradiol induced effect on mouse uterus ([5]; 0.5 mg/kg): 50%
- oestrogenic effect, % less than that of oestradiol 0.05 mg/kg ([6]; 0.5 mg/kg): 20%
- estrogenic effect (in words) [6]: dose dependent
- relative tumour size compared to controls which is 100 ([7]; 1.0 mg/kg): 80
- relative tumour size compared to controls which is 100 ([7]; 5.0 mg/kg): 77
- relative tumour size compared to controls which is 100 ([7]; 10.0 mg/kg): 58
- relative tumour size compared to controls which is 100 ([7]; 20.0 mg/kg): 64
- relative tumour size compared to controls which is 100 ([7]; 40.0 mg/kg): 40
- IC50 ([8]; Homo sapiens, MCF7): 1 to 5 µM

Structure (SMILES): CC/C(=C(\c1ccccc1)c1ccc(OCCNC)cc1)C1CCCC1 [Compound 10, (Z)--2-cyclopentyl-1-[p-(N--methyl-2-aminoethoxy)-phenyl]-1-phenyl-1-butene, hydrochloride]
- IC50 [2]: 10 to 100 µM
- IC50 ([8]; Homo sapiens, MCF7): 5 to 10 µM

Structure (SMILES): CCC(=C(c1ccc(OC)cc1)c1ccc(OCCN(C)C)cc1)C1CCCC1 [Compound 11, 2-cyclopentyl-1-[p-(N,N-dimethyl-2-aminoethoxy)phenyl]-1-(p-methoxyphenyl)-1-butene]
- Given with medroxyprogesterone acetate: effect (in words) [3]: synergistic
- Given with medroxyprogesterone acetate: reduction in mice uterus weight [3]: 67%
- reduction of mouse uterus weight together with medroxyprogesterone acetate ([3]; together with medroxyprogesterone acetate, vs 40% for the acetate alone): 67%
- IC50 [2]: 10 to 100 µM
- relative tumour size compared to controls which is 100 ([7]; 1.0 mg/kg): 87
- relative tumour size compared to controls which is 100 ([7]; 5.0 mg/kg): 87
- relative tumour size compared to controls which is 100 ([7]; 10.0 mg/kg): 50
- Given alone: progestanic effect (in words) ([1]; given alone): progestanic
- Given alone: reduction in mice uterus weight ([1]; given alone): 20%
- progestanic effect (in words) ([1]; given alone): purely due to its progestanic effect
- reduction of mouse uterus weight ([1]; given alone, 0.5 mg/kg): 20%
- IC50 ([8]; Homo sapiens, MCF7): 1 to 10 µM

Structure (SMILES): CCC(=C(c1ccc(O)cc1)c1ccc(OCCN(C)C)cc1)C1CCCC1 [Compound 7, 2-cyclopentyl-1-[p-(N,N-dimethyl-2-aminoethoxy)phenyl]-1-(p-hydroxyphenyl)-1-butene]
- antiprogestanic / synergistic effect with medroxyprogesterone acetate (in words) [3, 9]: clear dose dependant antiprogestanic effect
- IC50 [2]: 0.1 to 1 µM
- inhibition of oestradiol induced effect on mouse uterus ([5]; 5 mg/kg): 48%
- Given with oestradiol: reduction in mice uterus weight ([5]; Table 2, 5 mg/kg, with oestradiol 0.05 mg/kg): 48%
- oestrogenic effect, % less than that of oestradiol 0.05 mg/kg ([6]; 0.5 mg/kg): 75%
- Given alone: oestrogenic effect (in words) [6]: oestrogenic
- estrogenic effect (in words) [6]: dose dependent
- progestanic effect (in words) ([1]; given alone): did not posses any progestanic effects of its own
- IC50 ([8]; Homo sapiens, MCF7): 1 to 5 µM

Structure (SMILES): CC/C(=C(\c1ccccc1)c1ccc(O)cc1)C1CCCC1 [Compound 3, (Z)-2-cyclopentyl-1-(p-hydroxyphenyl)-1-phenyl-1-butene]
- IC50 [2]: 0.1 to 10 µM
- IC50 ([8]; Homo sapiens, MCF7): 1 to 5 µM

Structure (SMILES): CCC(C1CCCC1)C(c1ccccc1)c1ccc(O)cc1 (stereo not shown) [Compound 6, 2-cyclopentyl-1-(p-hydroxyphenyl)-1-phenylbutane]
- antiprogestanic / synergistic effect with medroxyprogesterone acetate (in words) [3, 9]: slight inhibition of medroxyprogesterone acetate produced effect
- antiestrogenic effect (in words) [5]: not antiestrogenic
- estrogenic effect (in words) [6]: did not possess any estrogenic effects of their own
- progestanic effect (in words) ([1]; given alone): did not possess progestanic effects
- IC50 [8]: 1 to 5 µM

Structure (SMILES): CCC(C1CCCC1)C(c1ccccc1)c1ccc(O)cc1 (stereo not shown) [Compound 4, 2-cyclopentyl-1-(p-hydroxyphenyl)-1-phenylbutane]
- IC50 [2]: 0.1 to 1 µM
- IC50 ([8]; Homo sapiens, MCF7): 1 to 5 µM
